Earlier results as cited in patent publication US20060024806A1, “Mycolactone locus: an assembly line for producing novel polyketides, therapeutic and prophylactic uses” (priority 2003, published 2006).

Tested on: guinea pig model of the disease
Settings: purified mycolactone injected subcutaneously

CC(=C\C=C\C(C)=C\[C@H](O)[C@@H](O)C[C@H](C)O)/C=C(C)/C=C/C(=O)O[C@H]1CCCC(=O)O[C@@H]([C@@H](C)C/C(C)=C/[C@@H](C)[C@H](O)C[C@@H](C)O)C/C=C(\C)C[C@@H]1C [mycolactone]
pathology after injection: reproduces the natural pathology
